molecular target: human RAF1 (Homo sapiens (Human), UniProt P04049); assay: Protein kinase assay (radiometric 33P-ATP, MEK1 (K97R) substrate); assay type: biochemical; conditions: human MEK1 (K97R) substrate 3 micromolar, ATP 10 micromolar, 10-dose IC50 mode; read-out: RAF-1 IC50
Experimental: Protein kinase assay: Assay platform was used to measure kinase/inhibitor interactions as described previously (Anastassiadis et al., 2011). In brief, for each reaction, kinase and substrate were mixed in a buffer containing 20 mM HEPES (pH 7.5), 10 mM MgCl2, 1 mM EGTA, 0.02% Brij35, 0.02 mg/mL BSA, 0.1 mM Na3VO4, 2 mM DTT, and 1% DMSO. All compounds were solubilized in DMSO. Compounds were then added to each reaction mixture via acoustic dispense using an ECHO 550 nanoliter dispenser. For human RAF1 testing, human MEK1 (K97R) was used as a substrate at a concentration of 3 micromolar, with a final ATP concentration of 10 micromolar. For human BRAF testing, human MEK1 (K97R) was used as a substrate at 1 micromolar concentration, with a final ATP concentration of 25 micromolar. […] After a 20-min incubation, ATP (Sigma-Aldrich, St. Louis, Mo. 63178) and [g33P] ATP (specific activity 10 microCi/microliter) purchased at PerkinElmer (Boston, Mass., 02118 Cat #BLU 003H250UC) were added at a final total concentration of 10 mM. Reactions were carried out at room temperature for 2 hr and spotted onto P81 ionexchange cellulose chromatography paper (Reaction Biology). Filter paper was washed in 0.75% phosphoric acid to remove unincorporated ATP. The percent remaining kinase activity relative to a vehicle-containing (DMSO) kinase reaction was calculated for each kinase/inhibitor pair. IC50 values were calculated using Prism 5 (GraphPad).

human RAF1, sequence (P04049 whole entry): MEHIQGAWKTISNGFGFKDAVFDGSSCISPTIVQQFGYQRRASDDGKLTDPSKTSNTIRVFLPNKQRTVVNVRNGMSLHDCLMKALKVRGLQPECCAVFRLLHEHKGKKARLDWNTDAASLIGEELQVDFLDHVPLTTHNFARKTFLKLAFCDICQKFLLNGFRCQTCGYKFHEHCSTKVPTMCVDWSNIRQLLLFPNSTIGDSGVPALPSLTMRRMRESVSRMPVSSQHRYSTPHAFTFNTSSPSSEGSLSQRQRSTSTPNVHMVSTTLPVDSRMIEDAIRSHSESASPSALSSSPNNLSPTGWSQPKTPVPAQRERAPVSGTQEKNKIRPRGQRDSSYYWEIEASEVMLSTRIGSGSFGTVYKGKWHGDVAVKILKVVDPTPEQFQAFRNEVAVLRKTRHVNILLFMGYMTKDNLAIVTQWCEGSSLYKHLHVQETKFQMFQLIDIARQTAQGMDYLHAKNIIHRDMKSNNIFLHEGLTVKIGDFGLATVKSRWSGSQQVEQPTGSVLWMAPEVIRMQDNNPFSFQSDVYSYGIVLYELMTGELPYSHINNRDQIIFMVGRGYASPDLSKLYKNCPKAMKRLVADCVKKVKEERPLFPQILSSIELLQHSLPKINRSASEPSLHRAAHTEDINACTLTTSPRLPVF

| Compound | IC50 |
| --- | --- |
| CNc1ncc2cc(-c3cc(NC(=O)c4ccnc(C(F)(F)F)c4)ccc3C)c(C(F)(F)F)nc2n1 [Example 73, N-[4-methyl-3-[2-(methylamino)-7-(trifluoromethyl)pyrido[2,3-d]pyrimidin-6-yl]phenyl]-2-(trifluoromethyl)pyridine-4-carboxamide] | ≤ 0.01 µM |
| CNc1ncc2cc(-c3cc(NC(=O)N4CC[C@@H](OCC(F)(F)F)C4)c(F)cc3C)c(C)nc2n1 [Example 51, (3R)-N-[2-fluoro-4-methyl-5-[7-methyl-2-(methylamino)pyrido[2,3-d]pyrimidin-6-yl]phenyl]-3-(2,2,2-trifluoroethoxy)pyrrolidine-1-carboxamide] | ≤ 0.01 µM |
| CNc1ncc2cc(-c3cc(NC(=O)N4CCC(C(F)(F)F)C4)ccc3C)c(C)nc2n1 (stereo not drawn) [Example 14, N-(4-methyl-3-(7-methyl-2-(methylamino)pyrido[2,3-d]pyrimidin-6-yl)phenyl)-3-(trifluoromethyl)pyrrolidine-1-carboxamide] | ≤ 0.01 µM |
| CNc1ncc2cc(-c3cc(NC(=O)c4cc[n+]([O-])c(C(F)(F)F)c4)ccc3C)c(C)nc2n1 [Example 76, 4-([4-methyl-3-[7-methyl-2-(methylamino)pyrido[2,3-d]pyrimidin-6-yl]phenyl]carbamoyl)-2-(trifluoromethyl)pyridin-1-ium-1-olate] | ≤ 0.01 µM |
| CNc1ncc2cc(-c3cc(NC(=O)N4CC[C@H](OC(F)(F)F)C4)ccc3C)cnc2n1 [Example 56, 3S-N-[4-methyl-3-[2-(methylamino)pyrido[2,3-d]pyrimidin-6-yl]phenyl]-3-(trifluoromethoxy)pyrrolidine-1-carboxamide] | ≤ 0.01 µM |
| CNc1ncc2cc(-c3cc(NC(=O)N4CC[C@@H](CC(F)(F)F)C4)ccc3C)c(C)nc2n1 [Example 20, (S)-N-(4-methyl-3-(7-methyl-2-(methylamino)pyrido[2,3-d]pyrimidin-6-yl)phenyl)-3-(2,2,2-trifluoroethyl)pyrrolidine-1-carboxamide] | ≤ 0.01 µM |
| CNc1ncc2cc(-c3cc(NC(=O)c4ccnc(C(F)(F)F)c4C)ccc3C)c(C)nc2n1 [Example 41, 3-methyl-N-(4-methyl-3-(7-methyl-2-(methylamino)pyrido[2,3-d]pyrimidin-6-yl)phenyl)-2-(trifluoromethyl)isonicotinamide] | ≤ 0.01 µM |
| CNc1ncc2cc(-c3cc(NC(=O)c4cncc(C(F)(F)F)c4)ccc3C)c(C)nc2n1 [Example 32, N-(4-methyl-3-(7-methyl-2-(methylamino)pyrido[2,3-d]pyrimidin-6-yl)phenyl)-5-(trifluoromethyl)nicotinamide] | ≤ 0.01 µM |
| CNc1ncc2cc(-c3cc(NC(=O)N4CCC5(CCC(F)(F)C5)C4)c(F)cc3C)c(C)nc2n1 (stereo not drawn) [Example 15, 7,7-difluoro-N-(2-fluoro-4-methyl-5-(7-methyl-2-(methylamino)pyrido[2,3-d]pyrimidin-6-yl)phenyl)-2-azaspiro[4.4]nonane-2-carboxamide] | ≤ 0.01 µM |
| CNc1ncc2cc(-c3cc(NC(=O)N4CCO[C@H](C(F)(F)F)C4)ccc3C)c(C)nc2n1 [Example 13] | ≤ 0.01 µM |
| CNc1ncc2cc(-c3cc(NC(=O)c4cc(C(F)(F)F)ccn4)ccc3C)c(C)nc2n1 [Example 27] | ≤ 0.01 µM |
| Cc1ccc(NC(=O)c2ccnc(C(F)(F)F)c2)cc1-c1cc2cnc(NCCN3CCCC3)nc2nc1C [Example 39, N-(4-methyl-3-(7-methyl-2-((2-(pyrrolidin-1-yl)ethyl)amino)pyrido[2,3-d]pyrimidin-6-yl)phenyl)-2-(trifluoromethyl)isonicotinamide] | ≤ 0.01 µM |

Further lines, results first:

| IC50 | Compound |
| --- | --- |
| ≤ 0.01 µM | CNc1ncc2cc(-c3cc(NC(=O)N4CCO[C@@H](C(F)(F)F)C4)c(F)cc3C)c(C)nc2n1 [Example 10, (2R)-N-[2-fluoro-4-methyl-5-[7-methyl-2-(methylamino)pyrido[2,3-d]pyrimidin-6-yl]phenyl]-2-(trifluoromethyl)morpholine-4-carboxamide] |
| ≤ 0.01 µM | CNc1ncc2cc(-c3cc(NC(=O)c4cccc(C(F)(F)F)c4)cnc3C)c(C)nc2n1 [Example 44, N-(6-methyl-5-(7-methyl-2-(methylamino)pyrido[2,3-d]pyrimidin-6-yl)pyridin-3-yl)-3-(trifluoromethyl)benzamide] |
| ≤ 0.01 µM | CNc1ncc2cc(-c3cc(NC(=O)N4CC[C@H](OC(F)(F)F)C4)cnc3C)cnc2n1 [Example 63, (3S)-N/-[6-methyl-5-[2-(methylamino)pyrido[2,3-d]pyrimidin-6-yl]pyridin-3-yl]-3-(trifluoromethoxy)pyrrolidine-1-carboxamide] |
| ≤ 0.01 µM | C=Cc1nc2nc(NC)ncc2cc1-c1cc(NC(=O)c2ccnc(C(F)(F)F)c2)ccc1C [Example 65, N-[3-[7-ethenyl-2-(methylamino)pyrido[2,3-d]pyrimidin-6-yl]-4-methylphenyl]-2-(trifluoromethyl)pyridine-4-carboxamide] |
| ≤ 0.01 µM | CNc1ncc2cc(-c3cc(NC(=O)c4ccnc(C(F)(F)F)c4)ccc3C)c(OCCO)nc2n1 [Example 70, N-[3-[7-(2-hydroxyethoxy)-2-(methylamino)pyrido[2,3-d]pyrimidin-6-yl]-4-methylphenyl]-2-(trifluoromethyl)pyridine-4-carboxamide] |
| ≤ 0.01 µM | CNc1ncc2cc(-c3cc(NC(=O)c4ccnc(C(F)(F)F)c4Cl)ccc3C)c(C)nc2n1 [Example 33, 3-chloro-N-(4-methyl-3-(7-methyl-2-(methylamino)pyrido[2,3-d]pyrimidin-6-yl)phenyl)-2-(trifluoromethyl)isonicotinamide] |
| ≤ 0.01 µM | Cc1ccc(NC(=O)c2ccnc(C(F)(F)F)c2)cc1-c1cc2cnc(NCCO)nc2nc1C [Example 40, N-(3-(2-((2-hydroxyethyl)amino)-7-methylpyrido[2,3-d]pyrimidin-6-yl)-4-methylphenyl)-2-(trifluoromethyl)isonicotinamide] |
| ≤ 0.01 µM | CNc1ncc2cc(-c3cc(NC(=O)N4CC=C(C(F)(F)F)C4)ccc3C)c(C)nc2n1 [Example 16, N-(4-methyl-3-(7-methyl-2-(methylamino)pyrido[2,3-d]pyrimidin-6-yl)phenyl)-3-(trifluoromethyl)-2,5-dihydro-1H-pyrrole-1-carboxamide] |
| ≤ 0.01 µM | CNc1ncc2cc(-c3cc(NC(=O)c4cnnc(C(F)(F)F)c4)ccc3C)c(C)nc2n1 [Example 50, N-(4-methyl-3-(7-methyl-2-(methylamino)pyrido[2,3-d]pyrimidin-6-yl)phenyl)-6-(trifluoromethyl)pyridazine-4-carboxamide] |
| ≤ 0.01 µM | CNc1ncc2cc(-c3cc(NC(=O)N4CC[C@H](CC(F)(F)F)C4)c(F)cc3C)c(C)nc2n1 [Example 17, (R)-N-(2-fluoro-4-methyl-5-(7-methyl-2-(methylamino)pyrido[2,3-d]pyrimidin-6-yl)phenyl)-3-(2,2,2-trifluoroethyl)pyrrolidine-1-carboxamide] |
| ≤ 0.01 µM | CNc1ncc2cc(-c3cc(NC(=O)N4CC[C@H](OC(F)(F)F)C4)ccc3C)c(C#N)nc2n1 [Example 79] |
| ≤ 0.01 µM | CNc1ncc2cc(-c3cc(NC(=O)c4cccc(C(F)(F)F)c4)cnc3C)cnc2n1 [Example 45, N-(6-methyl-5-(2-(methylamino)pyrido[2,3-d]pyrimidin-6-yl)pyridin-3-yl)-3-(trifluoromethyl)benzamide] |
| ≤ 0.01 µM | CNc1ncc2cc(-c3cc(NC(=O)N4CC[C@@H](OC(F)(F)F)C4)c(F)cc3C)cnc2n1 [Example 60, (3R)-N-[2-fluoro-4-methyl-5-[2-(methylamino)pyrido[2,3-d]pyrimidin-6-yl]phenyl]-3-(trifluoromethoxy)pyrrolidine-1-carboxamide] |
| ≤ 0.01 µM | CNc1ncc2cc(-c3cc(NC(=O)N4CCn5cnc(C(F)(F)F)c5C4)ccc3C)c(C)nc2n1 [Example 24, N-(4-methyl-3-(7-methyl-2-(methylamino)pyrido[2,3-d]pyrimidin-6-yl)phenyl)-1-(trifluoromethyl)-5,6-dihydroimidazo[l,5-a]pyrazine-7(8H)-carboxamide] |

same assay, conditions: read-out: RAF-1 IC50

| IC50 | Compound |
| --- | --- |
| ≤ 0.01 µM | CNc1ncc2cc(-c3cc(NC(=O)N4CCC(C(F)(F)F)C4)ccc3C)cnc2n1 (stereo in doubt) [Example 55, (3S)—N-[4-methyl-3-[2-(methylamino)pyrido[2,3-d]pyrimidin-6-yl]phenyl]-3-(trifluoromethyl)pyrrolidine-1-carboxamide] |
| ≤ 0.01 µM | CNc1ncc2cc(-c3cc(NC(=O)N4CCO[C@H](C(C)(C)C)C4)c(F)cc3C)c(C)nc2n1 [Example 22, (R)-2-(tert-butyl)-N-(2-fluoro-4-methyl-5-(7-methyl-2-(methylamino)pyrido[2,3-d]pyrimidin-6-yl)phenyl)morpholine-4-carboxamide] |
| ≤ 0.01 µM | CNc1ncc2cc(-c3cc(NC(=O)c4ccnc(C(F)(F)F)c4)ccc3C)c(C)nc2n1 [Example 6, N-[4-methyl-3-[7-methyl-2-(methylamino)pyrido[2,3-d]pyrimidin-6-yl]phenyl]-2-(trifluoromethyl)pyridine-4-carboxamide] |
| ≤ 0.01 µM | CNc1ncc2cc(-c3cc(NC(=O)N4CCO[C@@H](C(C)(C)C)C4)c(F)cc3C)c(C)nc2n1 [Example 23, (S)-2-(tert-butyl)-N-(2-fluoro-4-methyl-5-(7-methyl-2-(methylamino)pyrido[2,3-d]pyrimidin-6-yl)phenyl)morpholine-4-carboxamide] |

From patent US10927111B2, “Inhibitors of RAF kinases” (Kinnate Biopharma Inc., priority 2019, dated 2021)
